Type in all cases: biochemical
The target of assay [1] is T1, human FAK (Homo sapiens, UniProt Q05397).
T1 construct: The complete cDNA of human FAK; made in house; host or cells: baculovirus expression system (vector pFastBac HTc)
Description: FAK autophosphorylation inhibition, time resolved fluorescence (HTRF) assay. Particulars: 10 μM (values without asterisk); read-out: FAK % inhib at 10 μM. Put shortly:
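His-tagged full-length human FAK from baculovirus (6.6 µg/ml) self-phosphorylates with 15 µM ATP in HEPES pH 7.2, MgCl2, vanadate, 1 h at 37 °C. HTRF detection (Eu-anti-phosphotyrosine / XL665-anti-His), 665/620 nm ratio; % inhibition vs untreated control, duplicate mean.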

Assay [2] has as its target T2, human KDR enzyme (Homo sapiens, UniProt P35968).
T2 construct: The cytoplasmic domain of the human KDR enzyme; GST; made in house; host or cells: SF21 insect cells (baculovirus)
Put plainly: KDR substrate (PLCγ) phosphorylation, scintillation assay. The following applies: 10 μM; read-out: KDR % inhib at 10 μM. In short, it runs like this: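 GST-fused human KDR cytoplasmic domain from SF21 cells (about 60% pure, 100 ng) phosphorylated 2 μg of GST-PLCγ SH2-SH3 fragment. The trigger solution held γ33P-ATP with 2 μM cold ATP, in MOPS buffer pH 7.2 with Mg2+, Mn2+, vanadate and NaF. Reactions ran 1 h at 37 °C, were stopped with EDTA and counted by scintillation; results are % inhibition versus the no-compound control.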

Assay [3] concerns the target T3, human IGF1R cytoplasmic domain (Homo sapiens, UniProt P08069).
T3 construct: The human IGF1R cytoplasmic domain was cloned; made in house; host or cells: SF21 insect cells (baculovirus)
Put plainly: IGF1R autophosphorylation inhibition, time resolved fluorescence (HTRF) assay. The following applies: 10 μM; read-out: IGF1R % inhib at 10 μM. In short, it runs like this:
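GST-tagged human IGF1R cytoplasmic domain from SF21 cells incubated with compound in 50 mM Hepes pH 7.5, 5 mM MnCl2, 50 mM NaCl, […] ATP. Autophosphorylation detected by HTRF (Eu-K anti-phosphotyrosine, XL665 anti-GST) after EDTA/KF stop; percentage inhibition versus no-compound control.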
(In TR-FRET formats the signal depends on donor and acceptor labels being close together.)

T3 sequence (P08069 960-1367 limits assumed): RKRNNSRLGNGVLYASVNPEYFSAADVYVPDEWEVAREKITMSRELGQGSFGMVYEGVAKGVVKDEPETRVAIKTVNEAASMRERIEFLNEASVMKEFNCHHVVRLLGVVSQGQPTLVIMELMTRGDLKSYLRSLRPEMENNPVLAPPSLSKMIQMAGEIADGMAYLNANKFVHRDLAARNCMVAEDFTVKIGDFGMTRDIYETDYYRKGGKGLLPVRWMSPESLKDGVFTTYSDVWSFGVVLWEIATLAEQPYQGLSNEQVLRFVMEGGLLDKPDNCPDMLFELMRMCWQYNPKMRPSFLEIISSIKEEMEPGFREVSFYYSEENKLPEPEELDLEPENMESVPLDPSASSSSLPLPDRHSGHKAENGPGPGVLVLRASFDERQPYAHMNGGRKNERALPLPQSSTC
T2 sequence (P35968 786-1356 limits assumed): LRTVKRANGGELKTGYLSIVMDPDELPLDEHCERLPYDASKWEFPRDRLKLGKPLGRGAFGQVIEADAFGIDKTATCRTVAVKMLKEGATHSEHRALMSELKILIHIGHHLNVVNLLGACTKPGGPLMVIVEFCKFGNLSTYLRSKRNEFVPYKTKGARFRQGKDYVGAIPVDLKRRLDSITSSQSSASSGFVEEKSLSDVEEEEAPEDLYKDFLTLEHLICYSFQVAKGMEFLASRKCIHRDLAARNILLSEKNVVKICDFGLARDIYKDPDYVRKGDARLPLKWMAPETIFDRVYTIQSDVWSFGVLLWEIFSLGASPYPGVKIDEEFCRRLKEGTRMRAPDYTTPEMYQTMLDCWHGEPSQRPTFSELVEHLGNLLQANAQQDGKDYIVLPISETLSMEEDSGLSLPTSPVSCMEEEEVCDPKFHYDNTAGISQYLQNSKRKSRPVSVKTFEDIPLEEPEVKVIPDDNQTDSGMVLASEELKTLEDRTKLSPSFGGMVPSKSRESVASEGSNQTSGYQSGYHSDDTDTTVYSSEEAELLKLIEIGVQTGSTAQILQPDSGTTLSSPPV
T1 sequence (Q05397 whole entry): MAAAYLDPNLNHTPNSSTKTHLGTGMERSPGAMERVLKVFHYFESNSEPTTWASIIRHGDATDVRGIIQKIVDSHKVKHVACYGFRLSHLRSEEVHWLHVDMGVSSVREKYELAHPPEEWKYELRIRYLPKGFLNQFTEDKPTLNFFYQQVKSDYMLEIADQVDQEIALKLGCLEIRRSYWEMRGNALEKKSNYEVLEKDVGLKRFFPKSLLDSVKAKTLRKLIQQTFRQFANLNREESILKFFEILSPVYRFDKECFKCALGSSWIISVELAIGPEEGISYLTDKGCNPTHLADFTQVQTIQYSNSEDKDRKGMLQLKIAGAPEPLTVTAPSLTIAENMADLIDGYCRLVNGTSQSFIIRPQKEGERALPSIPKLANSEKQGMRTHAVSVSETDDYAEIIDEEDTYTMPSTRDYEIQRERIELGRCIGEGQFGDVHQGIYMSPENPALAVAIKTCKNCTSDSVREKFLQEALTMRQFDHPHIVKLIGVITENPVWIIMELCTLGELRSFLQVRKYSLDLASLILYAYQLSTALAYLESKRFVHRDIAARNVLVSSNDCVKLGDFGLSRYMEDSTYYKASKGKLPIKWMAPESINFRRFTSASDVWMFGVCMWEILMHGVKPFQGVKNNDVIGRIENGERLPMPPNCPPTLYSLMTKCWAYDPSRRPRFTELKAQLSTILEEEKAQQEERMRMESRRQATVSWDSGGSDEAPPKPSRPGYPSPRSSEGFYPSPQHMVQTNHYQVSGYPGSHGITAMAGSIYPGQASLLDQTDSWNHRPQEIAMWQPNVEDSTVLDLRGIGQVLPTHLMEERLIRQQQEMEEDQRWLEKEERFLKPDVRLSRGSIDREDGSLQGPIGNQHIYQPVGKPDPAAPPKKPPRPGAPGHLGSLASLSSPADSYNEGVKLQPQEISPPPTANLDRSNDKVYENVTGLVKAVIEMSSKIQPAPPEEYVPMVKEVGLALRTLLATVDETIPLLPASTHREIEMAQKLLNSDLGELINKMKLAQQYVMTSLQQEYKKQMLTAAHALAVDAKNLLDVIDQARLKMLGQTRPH

Consider `N#Cc1cccc(S(=O)(=O)Nc2ccc3[nH]nc(-c4ccccc4)c3c2)c1` [Example 154, 3-Cyano-N-(3-phenyl-1H-indazol-5-yl)-benzenesulfonamide], for which the inhibition at 10 µM in assay [1] was 54%; in assay [2] it was 96%; in assay [3] it was 75%.
As to `O=S(=O)(Nc1ccc2[nH]nc(-c3ccccc3)c2c1)C1CCNCC1` [Example 100, N-(3-Phenyl-1H-indazol-5-yl)-piperidine-4-sulfonamide], the inhibition at 10 µM in assay [1] came to 94%; in assay [2], 74%; in assay [3], 13%.
The like results for `O=S(=O)(Nc1ccc2[nH]nc(-c3ccccc3)c2c1)c1ccc(F)cc1` [Example 117, 4-Fluoro-N-(3-phenyl-1H-indazol-5-yl)-benzenesulfonamide] were, in that order, 53%, 93% and 56%.
For `CS(=O)(=O)c1ccccc1S(=O)(=O)Nc1ccc2[nH]nc(NCc3ccccc3)c2c1` [Example 36, N-(3-Benzylamino-1H-indazol-5-yl)-2-methylsulfonylbenzenesulfonamide], the inhibition at 10 µM in assay [1] worked out at 92%; in assay [2] it was 23%; in assay [3], 92%.
Consider `CS(=O)(=O)c1ccccc1S(=O)(=O)Nc1ccc2[nH]nc(-c3ccc(F)cc3)c2c1` [Example 33, N-[3-(4-Fluorophenyl)-1H-indazol-5-yl]-2-methylsulfonylbenzenesulfonamide], for which the inhibition at 10 µM in assay [1] was found to be 94%; in assay [2] it was 68%; in assay [3] it was 94%.
Take `Cc1ccccc1S(=O)(=O)Nc1ccc2[nH]nc(-c3ccccc3)c2c1` [Example 132, 2-Methyl-N-(3-phenyl-1H-indazol-5-yl)-benzenesulfonamide]: the figures for the inhibition at 10 µM in assay [1], in assay [2] and in assay [3] were 51%, 96% and 77%, respectively.

Source of the values: patent publication US6858638B2, “Substituted indazoles, compositions containing them, method of production and use” (Aventis Pharma S.A., priority 2002, dated 2005).
